Test results from patent US20260098034A1, “2H-BENZOTRIAZOLE DERIVATIVE, PREPARATION METHOD THEREFOR, AND PHARMACEUTICAL COMPOSITION CONTAINING SAME” (ORXES THERAPEUTICS CO., LTD., priority 2022, published 2026).
Values joined by “and” are separate entries in the source; they are usually repeats but may differ in a detail not shown here. Equal entries are not always repeated.

System: Wistar rats
Experiment: PCA-induced Wistar rat premature ejaculation model
Type: in vivo
Conditions: for Actual number of ejaculations / Number of the seminal vesicle contractions / Seminal vesicle basal pressure / Seminal vesicle peak pressure / The first contraction latency period / The first ejaculation latency period: within 30 min after PCA induction, individual rats; for latency period of initial seminal vesicle contraction compared with the PE model group: FIG. 4
Procedure: Male Wistar rats with a weight of about 300 g were adapted for one week before the experiment was started. On the day of the experiment, the animals were anesthetized with a combination of 20 mg/kg of Zoletil 50 via i.p. and 8 mg/kg of xylazine via i.p., and the body temperature was maintained at 37° C. with a thermal insulation blanket. Exposed common carotid artery was intubated with PE50 to monitor real-time arterial pressure (i.e. systolic pressure, diastolic pressure, and mean arterial pressure). The seminal vesicles and cavernosal muscles of the animals were exposed. The stable baselines of the pressure of the seminal vesicle and the cavernosal myoelectricity were recorded for 10 min. Then the drug was administered through the tail vein for the dapoxetine group, and the tested compound was orally administered for the tested compound group (for the PE model group, the drug was replaced with a solvent). After 1 min, for inducing PE modeling, 5 mg/kg of PCA was injected intraperitoneally, and then the seminal vesicle pressure curve and the change of bulbospongiosus EMG were continuously recorded for 30 min.
• A. Within 30 min, the actual number of ejaculations of the animals and the latency period of the first ejaculation; • B. Within 30 min, the number of the seminal vesicle contractions, the latency period of the first contraction, the basal pressure and the peak pressure.
The experimental data were expressed by means±S.E.M., and statistical analysis was performed by GraphPad Prism 7.0 software. Single factor variance analysis (One-way ANOVA) was used for comparison between multiple groups, and Dunnett't-test was used for statistical analysis in Post hoc test. Student's t-test was used for comparison between two groups. P<0.05 was considered as a significant difference.

[1] = 0.125 mg/kg p.o. + PCA 5 mg/kg i.p.
[2] = 0.5 mg/kg p.o. + PCA 5 mg/kg i.p.
[3] = 2 mg/kg p.o. + PCA 5 mg/kg i.p.

Row | Structure (SMILES) | Actual number of ejaculations [1] | Number of the seminal vesicle contractions [1] | Seminal vesicle basal pressure [1] | Seminal vesicle peak pressure [1] | The first contraction latency period [1] | The first ejaculation latency period [1] | Actual number of ejaculations [2] | Number of the seminal vesicle contractions [2] | Seminal vesicle basal pressure [2] | Seminal vesicle peak pressure [2] | The first contraction latency period [2] | The first ejaculation latency period [2] | Actual number of ejaculations [3] | Number of the seminal vesicle contractions [3] | Seminal vesicle basal pressure [3] | Seminal vesicle peak pressure [3] | The first contraction latency period [3] | The first ejaculation latency period [3] | further results
1 | c1ccc2nn(CCCCN3CCN(c4noc5ccccc45)CC3)nc2c1 [Compound A001] | 8 and 9 and 11 (2×) and 10 | 10 and 11 and 12 and 13 and 16 | 6.69 mmHg and 7.04 mmHg and 7.28 mmHg and 6.91 mmHg and 7.78 mmHg | 17.17 mmHg and 21.45 mmHg and 22.67 mmHg and 23.39 mmHg and 20.58 mmHg | 784 s and 788 s and 605 s and 517 s and 839 s | 996 s and 726 s and 766 s and 823 s and 969 s | 0 (2×) and 2 (2×) and 3 | 0 (2×) and 5 and 4 and 6 | 3.88 mmHg and 4.19 mmHg and 5.77 mmHg and 5.08 mmHg and 5.68 mmHg | 4.89 mmHg and 5.09 mmHg and 11.06 mmHg and 16.57 mmHg and 14.89 mmHg | 1800 s (2×) and 1298 s and 1147 s and 1125 s | 1800 s (2×) and 1399 s and 1311 s and 1291 s | 2 and 0 (4×) | 4 and 0 and 1 (3×) | 6.88 mmHg and 4.68 mmHg and 4.38 mmHg and 4.92 mmHg and 3.98 mmHg | 18.65 mmHg and 6.99 mmHg and 6.07 mmHg and 7.32 mmHg and 6.05 mmHg | 968 s and 1800 s and 1687 s and 1774 s and 1629 s | 1055 s and 1800 s (4×) | 
2 | Fc1ccc2c(C3CCN(CCCn4nc5ccccc5n4)CC3)noc2c1 [Compound A002] | 2 (2×) and 6 and 3 and 5 | 5 (2×) and 6 (2×) and 3 | 5.88 mmHg and 6.10 mmHg and 6.02 mmHg and 4.66 mmHg and 3.97 mmHg | 12.33 mmHg and 16.17 mmHg and 18.07 mmHg and 12.06 mmHg and 9.88 mmHg | 1266 s and 833 s and 825 s and 1198 s and 1499 s | 1422 s and 933 s and 966 s and 1276 s and 1345 s | 2 and 3 and 1 and 0 (2×) | 3 and 4 and 2 and 0 (2×) | 5.76 mmHg and 5.88 mmHg and 5.79 mmHg and 3.67 mmHg and 3.87 mmHg | 12.54 mmHg and 11.66 mmHg and 7.05 mmHg and 4.27 mmHg and 5.11 mmHg | 1176 s and 1307 s and 1355 s and 1800 s (2×) | 1233 s and 1346 s and 1432 s and 1800 s (2×) | 0 | 2 and 0 (4×) | 4.15 mmHg and 4.12 mmHg and 4.85 mmHg and 4.11 mmHg and 3.93 mmHg | 8.87 mmHg and 6.08 mmHg and 5.09 mmHg and 4.77 mmHg and 5.03 mmHg | 1568 s and 1800 s (4×) | 1800 s | latency period of initial seminal vesicle contraction compared with the PE model group (high dose group (2.0 mg/kg p.o.)): significant increase; latency period of initial seminal vesicle contraction compared with the PE model group (low dose group (0.125 mg/kg p.o.), P>0.05): no statistically significant differences; latency period of initial seminal vesicle contraction compared with the PE model group (medium dose group (0.5 mg/kg p.o.)): significant increase
3 | Fc1ccc2c(C3CCN(CCCCn4nc5ccccc5n4)CC3)noc2c1 [Compound A003] | 0 (2×) and 4 (2×) and 5 | 3 (2×) and 8 (2×) and 7 | 3.97 mmHg and 3.78 mmHg and 5.98 mmHg and 5.59 mmHg and 5.17 mmHg | 4.08 mmHg and 4.25 mmHg and 16.58 mmHg and 14.17 mmHg and 18.06 mmHg | 1458 s and 1525 s and 707 s and 658 s and 735 s | 1800 s (2×) and 865 s and 778 s and 806 s | 6 (2×) and 2 and 0 (2×) | 9 (2×) and 5 and 0 (2×) | 5.88 mmHg and 6.03 mmHg and 5.19 mmHg and 3.9 mmHg and 4.2 mmHg | 18.97 mmHg and 20.11 mmHg and 12.84 mmHg and 4.09 mmHg and 4.76 mmHg | 778 s and 814 s and 1009 s and 1800 s (2×) | 845 s and 903 s and 1175 s and 1800 s (2×) | 0 | 1 and 0 (4×) | 4.65 mmHg and 4.17 mmHg and 4.55 mmHg and 4.62 mmHg and 3.92 mmHg | 8.13 mmHg and 5.24 mmHg and 4.9 mmHg and 4.89 mmHg and 4.86 mmHg | 1623 s and 1800 s (4×) | 1800 s | 
4 | c1ccc2nn(CCCN3CCN(c4nsc5ccccc45)CC3)nc2c1 [Compound A004] | 0 (2×) and 3 and 6 and 4 | 3 and 4 and 8 and 6 and 2 | 4.09 mmHg and 5.98 mmHg and 5.59 mmHg and 5.17 mmHg and 4.18 mmHg | 4.21 mmHg and 13.38 mmHg and 16.13 mmHg and 15.05 mmHg and 4.25 mmHg | 1400 s and 797 s and 757 s and 735 s and 1525 s | 1800 s (2×) and 865 s and 678 s and 806 s | 5 and 6 and 2 and 0 (2×) | 7 and 8 and 3 and 0 (2×) | 5.89 mmHg and 6.07 mmHg and 5.18 mmHg and 3.99 mmHg and 4.32 mmHg | 17.95 mmHg and 29.19 mmHg and 13.88 mmHg and 4.79 mmHg and 4.77 mmHg | 798 s and 819 s and 1009 s and 1800 s (2×) | 845 s and 903 s and 1175 s and 1800 s (2×) | 0 | 0 | 4.68 mmHg and 4.67 mmHg and 4.65 mmHg and 4.66 mmHg and 3.97 mmHg | 5.18 mmHg and 5.26 mmHg and 4.96 mmHg and 4.79 mmHg and 4.87 mmHg | 1800 s | 1800 s | 
5 | Fc1ccc2c(N3CCN(CCCn4nc5ccccc5n4)CC3)noc2c1 [Compound A005] | 0 (2×) and 4 (2×) and 5 | 2 and 3 and 6 and 8 and 7 | 3.99 mmHg and 3.98 mmHg and 5.98 mmHg and 5.59 mmHg and 5.18 mmHg | 4.09 mmHg and 4.29 mmHg and 16.56 mmHg and 17.17 mmHg and 18.08 mmHg | 1458 s and 1525 s and 707 s and 658 s and 738 s | 1800 s (2×) and 965 s and 878 s and 806 s | 5 (2×) and 3 and 0 (2×) | 6 and 7 and 4 and 0 (2×) | 5.89 mmHg and 6.05 mmHg and 5.15 mmHg and 3.93 mmHg and 4.22 mmHg | 18.99 mmHg and 19.11 mmHg and 12.85 mmHg and 4.09 mmHg and 4.76 mmHg | 778 s and 855 s and 1005 s and 1800 s (2×) | 845 s and 903 s and 1175 s and 1800 s (2×) | 0 | 0 (4×) and 1 | 4.16 mmHg and 4.27 mmHg and 4.65 mmHg and 4.32 mmHg and 3.93 mmHg | 5.26 mmHg and 5.22 mmHg and 7.15 mmHg and 4.83 mmHg and 4.89 mmHg | 1800 s (4×) and 1655 s | 1800 s | 
6 | Fc1ccc2c(N3CCN(CCCCn4nc5ccccc5n4)CC3)noc2c1 [Compound A006] | 0 and 1 and 4 (2×) and 5 | 2 (2×) and 7 (2×) and 8 | 3.93 mmHg and 3.88 mmHg and 5.98 mmHg and 5.79 mmHg and 5.18 mmHg | 4.11 mmHg and 4.21 mmHg and 16.58 mmHg and 15.19 mmHg and 17.07 mmHg | 1453 s and 1325 s and 707 s and 758 s and 738 s | 1800 s and 1330 s and 877 s and 798 s and 808 s | 6 and 4 and 2 and 0 (2×) | 8 and 6 and 3 and 0 (2×) | 5.86 mmHg and 6.06 mmHg and 5.12 mmHg and 3.91 mmHg and 4.25 mmHg | 18.66 mmHg and 20.61 mmHg and 12.89 mmHg and 4.19 mmHg and 4.79 mmHg | 899 s and 816 s and 1022 s and 1800 s (2×) | 855 s and 903 s and 1175 s and 1800 s (2×) | 0 | 0 (4×) and 1 | 4.66 mmHg and 4.16 mmHg and 4.65 mmHg and 4.67 mmHg and 3.98 mmHg | 5.13 mmHg and 5.28 mmHg and 4.97 mmHg and 4.79 mmHg and 7.87 mmHg | 1800 s (4×) and 1660 s | 1800 s | 
